# A melting point compilation (Tetko et al.; mined from patent text by program, amines drawn as free bases though some values may be those of a salt)
row,Structure (SMILES),melting point [°C]
1,CCCCCCC(C)OS(=O)(=O)NC(=O)Nc1c(C(C)C)cccc1C(C)C (stereo not given),109 to 113
2,CC(C)Cn1cccc1C(=O)C(C#N)C(=O)Nc1ccccc1 (stereo not given),134 to 136
3,CCCc1c(C(C)C)nc(C(C)C)c(CO)c1-c1ccc(F)cc1O,138 to 141
4,CCOC(NC(=O)c1snc(Cl)c1Cl)C(F)(F)F (stereo not given),99 to 101
5,CC(=O)Nc1nc(NC(C)CCc2ccccc2)nc(C(C)(C)F)n1 (stereo not given),91
6,O=C(NC(=O)c1ccccc1F)NC1CN2CCC1CC2 (stereo not given),187 to 188
7,Cc1cccc(C(=O)C(C)(C)C(C)(C)[N+](=O)[O-])c1,50 to 51
8,CC(=O)N1CCc2cc(CC(C)NCCOc3ccccc3OCC(F)(F)F)cc(C#N)c21 (stereo not given),57 to 59
9,FC(F)(F)c1n[nH]c2ccccc12,104
10,CCC1=C(C#N)C(c2cccc(C#N)c2Br)c2c[nH]nc2N1 (stereo not given),> 300
11,CCC(=O)CC(C(C(=O)CC)c1ccc([N+](=O)[O-])cc1)[N+](=O)[O-] (stereo not given),61.5 to 65.6
12,CC(=O)c1ccc(CCN2CCN(c3ccc(Cl)cc3)CC2)cc1,141 to 143
13,Cc1nc(Cn2c(=O)sc3cc(F)ccc32)no1,142 to 144
14,OCCc1c[nH]c2ccc(F)cc12,59 to 61
15,CC1(C)NC(=O)C(C)(C)N1O,240 to 245
16,CCOc1c(NCc2ccc(C#N)c(CC)c2)c(=O)c1=O,239 to 242
17,CCS(=O)(=O)N(c1cc(-c2ncnc(C(F)(F)F)c2Cl)c(F)cc1C#N)S(=O)(=O)CC,191 to 194
18,CN1CCN(Cc2c(CO)c(Cl)nc3cc4c(cc23)OCCO4)CC1,178 to 180
19,CCCCC(CC)COc1cccc2c1C(=O)c1cccc(OCC(CC)CCCC)c1C2=O (stereo not given),105
20,CN1CCC(OC(c2cccc(N)c2)c2nc3ccccc3[nH]2)CC1 (stereo not given),100
21,CC1(C(=O)Nc2ccc(-n3nc(C(F)(F)F)cc3C(F)(F)F)cc2)C=CCCC1 (stereo not given),108 to 110
22,Cc1ccc(N(C)S(=O)(=O)c2cccnc2Cl)c2[nH]c(C3=NCC(CN4CCOCC4)S3)cc12 (stereo not given),151 to 153
23,Nc1ccccc1/C=C/c1ncon1,108 to 109
24,O=c1oc2c(c(=O)n1C1CCCCC1)CCC2,72 to 74
25,O=C1Nc2cc(CN3CCC(c4ccccc4)CC3)ccc2OC1F (stereo not given),217 to 221
26,CC(C)C=CC1(C(F)(F)F)OCC(=O)Nc2ccc(F)c(F)c21 (stereo not given),159 to 160

row,Structure (SMILES),melting point [°C]
1,CCCC(=NOCC)C1=C(O)CC(c2c(C)c(C)c(C)c3c2OCC3)CC1=O (stereo not given),108
2,O=[N+]([O-])c1ccc(Oc2ccc(C34CC5CC(C3)CC(c3ccc(Oc6ccc([N+](=O)[O-])c(O)c6)cc3)(C5)C4)cc2)cc1O,118 to 122
3,O=c1[nH]c2cc(Br)c3c(c2[nH]c1=O)CN(Cc1ccccc1)CC3,297 to 302
4,Cc1nc(-c2cccc(NC(=O)N3CCc4c(cnc5[nH]nc(Br)c45)C3)c2)no1,> 152
5,COc1ccccc1N1CCN(CC(O)CCl)CC1 (stereo not given),96 to 98
6,Oc1ccccc1CCC1NCCS1 (stereo not given),100 to 102
7,NS(=O)(=O)c1cccc(-c2cccc(-c3nc(-c4ccc(C(F)(F)F)cc4)cc(C(F)F)n3)c2)c1,204
8,FC(F)(F)c1ccc(C2=CCC(N3CCN(Cc4ccccc4)CC3)CC2)cc1 (stereo not given),115 to 116
9,OC(Cc1ccncc1)C(Cl)(Cl)Cl (stereo not given),166 to 168
10,Cc1nc2cc3c(cc2[nH]1)NC(=O)C3(C)C,> 300
11,CCC(CC)COc1c(C)nc(N)nc1N,142 to 143
12,CNC(=NOC)C1=Nc2ccc(Cl)cc2C(c2ccccc2F)=NC1,140 to 142
13,CCCCC[C@@H](CNC(=O)Nc1c(OC)ccc2c1CCCC2)c1cccc2c1OCO2,137 to 138
14,COc1nc(NC#N)nc(OC)n1,> 300
15,Cc1ccc2c(c1)CN1CCCC1C(=O)N2C (stereo not given),80 to 82
16,CCn1c(N(C)C)nc2cc(C(F)(F)F)c(Cl)c(N)c21,99 to 100
17,NCCCNc1ncc2ncnc(Nc3ccc(F)c(Cl)c3)c2n1,177 to 179
18,Cn1c(=O)nc(-c2ccccc2)c2cc3c(cc21)OCO3,253 to 255
19,COc1ccc(OCC(=O)CS(=O)(=O)C(c2ccc(Cl)cc2)c2ccc(Cl)cc2)cc1,116 to 117
20,CC12CCC3c4ccc(OCc5ccccc5)c(N)c4CCC3C1CCC2=O (stereo not given),219 to 221
21,CC1(C)COC(CCc2ccc(N)cc2)OC1,93.5 to 94.5
22,Cc1noc(NS(=O)(=O)c2ccsc2C(=O)NS(=O)(=O)c2cccc3c(N(C)C)cccc23)c1Br,184 to 186
23,O=c1oc2ccccc2c(O)c1C1CC(c2ccc(OCc3ccc(-c4ccc(-c5ccccc5)cc4)cc3)cc2)Cc2ccccc21 (stereo not given),245 to 248
24,Cc1ccc(NC(=O)N(C)N)cc1NC(=O)N(C)N,164 to 165
25,CC1(O)CCC2(C)C(CCC3C2CCC2(C)C(c4cc(CO)no4)CCC32)C1 (stereo not given),192 to 193
26,Fc1ccc(-c2ncn(C3CCNCC3)c2-c2ccnc(Oc3ccc(Oc4ccccc4)cc3)n2)cc1,174 to 175

# Continued, values first:
row,melting point [°C],Structure (SMILES)
1,163 to 164,N#Cc1ccc(Cc2ccc(O)cc2)cc1
2,189 to 192,CCn1cc(C(=O)NCc2ccc(Cl)cc2)c(=O)c2sccc21
3,145 to 147,COc1ccccc1N1CCN(CNC(=O)c2ccc(Cl)cc2)CC1
4,131 to 132,O=C(CCC(=O)N1CCC(c2ccc(Cl)cc2)CC1)c1ccc2c(c1)CCN(C(=O)C(F)(F)F)CC2
5,206,Cc1cccc(NC(=O)NCC(=O)N(CC(=O)Oc2ccccc2)c2ccccc2)c1
6,92 to 95,Cc1c(-c2ccc(Cl)cc2Cl)nc(C#N)n1S(=O)(=O)N(C)C
7,168 to 169,CCN1C(=O)C(C)(C)C(=O)N(C)c2cc(OCCCn3c(=O)c(Br)cc4ccccc43)ccc21
8,125 to 126,COc1cc(NC(=O)OC(C)(C)C)ccc1OCCCN1CCN(c2ccccc2)CC1
9,153 to 155,COC(=O)COc1ccccc1C1C(C(=O)OC)=C(C)NC(C)=C1C(=O)OC
10,194 to 195,COc1ccc(C2=NNC(=O)CC2)cc1Cl
11,108 to 111,COc1cc(NC(=O)Nc2ccc(C3=CCN(C(=O)Nc4ccc(OCC(O)CO)cc4Cl)CC3)cc2)cc(OC)c1 (stereo not given)
12,193 to 196,COc1ccc(NC(=O)c2ccc(COc3ccc4c(c3)CCC(CCN3CCCCC3)C4)cc2)cc1 (stereo not given)
13,222 to 224,CNc1nn(C(=O)NC(C)C(C)Cc2ccc(Cl)cc2)c(=O)n1C (stereo not given)
14,170 to 172,COc1ccc(CCC(=O)Nc2c(C)c(C)c3c(c2C)[C@@H](c2ccc(C)cc2)C(C)(C)O3)cc1
15,192 to 194,CN(C)CC1Cc2ccc(NC(=O)c3ccc(-c4ccc(Cl)cc4)cc3)cc2C1 (stereo not given)
16,175,O=C(O)[C@H]1Oc2ccc(Cl)cc2[C@@H](c2ccccc2)O1 (relative stereo)
17,68 to 69,FC(F)(F)Oc1ccc(C2NCCc3c2[nH]c2ccccc32)cc1 (stereo not given)
18,145 to 147,CCCC1=C(C(=O)OCC)C(c2ccccc2Cl)c2cn(C(=O)Nc3ccccc3)nc2N1 (stereo not given)
19,155 to 156,CC(n1cnc2cc(I)ccc2c1=O)C(O)(Cn1cncn1)c1ccc(F)cc1F (stereo not given)
20,66 to 80,COc1cc(C2CCN(C[C@H](O)CO)CC2)ccc1Nc1ncc2ccc(-c3ccccc3OC)n2n1
21,65 to 67,CCCCC(=O)c1ccc(-c2ccc(C(=O)Nc3ccc(OC)c(N4CCN(C)CC4)c3)cc2C)cc1
22,40 to 42,CCCCCCCCCCCCOCCOc1ccc(C(=O)OC)cc1
23,167 to 169,O=C(c1ccccc1)N1CCCC1c1cccc(O)c1 (stereo not given)
24,113,COc1ccc(CN(C)CCSc2ccc(NC(=O)c3cccc4c(=O)c5ccccc5[nH]c34)cc2)cc1OC

row,melting point [°C],Structure (SMILES)
1,199 to 201,CNC(=O)Cn1c(-c2cccc(Br)c2)nc2cccnc21
2,155 to 157,COc1ccccc1-n1cnc2c(C(N)=O)nc(Nc3cccc(O)c3)nc21
3,95 to 100,COC(=O)c1c(CNC(=O)c2ccc(C(=O)O)cc2)ccc2c1C(C)(C)CCC2(C)C
4,124 to 126,COc1ccc(Cl)cc1NC(=O)C1CCNCC1
5,177 to 178,CCCC(=O)Nc1c(C)c(C)c2c(c1C)C(c1ccc(C(C)C)cc1)CO2 (stereo not given)
6,199 to 200,CC(Cl)(Cl)C(NC(=O)c1ccc(Cl)cc1)NC(=NC#N)Nc1ccc(Cl)nc1 (stereo not given)
7,168 to 170,Cc1cc(-c2ccnc(C(N)=O)c2)n(-c2ccc(F)cc2)n1
8,184 to 185,Nc1c(-c2ccc(C(F)(F)F)cc2F)nnn1-c1ccc(S(N)(=O)=O)cc1
9,130 to 132,CCNc1ccc(-c2ccnc3c(C(=O)c4cccs4)cnn23)cc1
10,98 to 100,CCOC(=O)/C=C(/c1ccc(OC)cc1)c1cc(Cl)ccc1Cl
11,150 to 152,COc1cc(Cl)nc(Oc2cccc(Oc3nc(OC)cc(OC)n3)c2C(=O)O)n1
12,182,O=c1c(Br)c(OCc2ccccc2)ccn1Cc1cccc(C(F)(F)F)c1
13,49.5 to 50,O=Cc1ccc(OCCBr)cc1
14,85 to 87,CN(C)Cc1ccc2n1Cc1ccccc1N(C(=O)c1ccc(-c3ccccc3)cc1)C2
15,197 to 200,NC(=O)NS(=O)(=O)c1cccc(Cl)c1Cl
16,106 to 112,COC(=O)c1cc(-c2ncco2)ccc1-c1ccccc1S(=O)(=O)Nc1onc(C)c1C
17,233 to 234,Cc1c(-c2ccc(O)cc2)sc(C=NO)c1-c1ccc(O)cc1
18,73 to 74,COc1ccc(OCC(O)CO)cc1 (stereo not given)
19,132,CCCOc1ccc(-c2ccc(Cl)nn2)cc1OC
20,237 to 238,CCn1cc(C(=O)O)c(=O)c2ccc(I)cc21
21,180 to 181,CC(CNC(=O)c1ccc(Oc2ccc(F)cc2)o1)N(O)C(N)=O (stereo not given)
22,84.9 to 88.7,Cc1ccccc1C(=O)N1CCC(=O)c2cc(F)c(Cl)cc21
23,177 to 178,COc1cc(C)c(S(=O)(=O)NC(=S)Nc2nc(-c3ccc(C4CCCCC4)cc3)c(C)s2)c(C)c1
24,120 to 122,CCSc1ccc(-c2ccccn2)c2c1C(=O)CC(C)C2 (stereo not given)
